Reference: US10780101B2, “Amide derivatives of squalamine for the treatment of infections” (VIRBAC, priority 2016, dated 2020)
≈ marks a conversion by molar mass, not a printed value.

Experiments:
S. aureus Animal (340) = experiment: MIC determination, S. aureus animal (340); assay type: cell-based; conditions: Staphylococcus aureus; Gram-positive; Mueller-Hinton medium, 24 h at 37° C.
Summary of the method: (§1)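 MH broth, inoculum OD 0.01/well, 0.5 cascade dilution of test compound (stock 5 mg/mL, DMSO/MeOH 50:50). 37 °C, 24 h, humid. OD620 read → MIC. n=2.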

[1] = tested on: P. aeruginosa Animal (1051575); experiment: MIC determination, P. aeruginosa animal (1051575); assay type: cell-based; conditions: Pseudomonas aeruginosa; Gram-negative; Mueller-Hinton medium, 24 h at 37° C.
Summary of the method: as §1

[2] = tested on: P. aeruginosa Human ATCC 27853; experiment: MIC determination, P. aeruginosa human ATCC 27853; assay type: cell-based; conditions: Pseudomonas aeruginosa, ATCC27853; Gram-negative; Mueller-Hinton medium, 24 h at 37° C.
Summary of the method: as §1

CHO-K1 cells = experiment: WST1 cytotoxicity test on CHO-K1 cells; assay type: cell-based, Chinese hamster; conditions: Cricetulus griseus, CHO-K1, 24 h, read-out: IC50 (μg/mL) CHO
Summary of the method: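 CHO-K1 cells pre-grown 24 h, then exposed to increasing compound concentrations in duplicate for 24 h at 37° C, 5% CO2. Viability read after 20 min with 10% WST-1 in PBS at 450 nm; IC50 from nonlinear regression as concentration cutting viability 50%.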

P. aeruginosa (1051575) [3] = experiment: Potentiation of chloramphenicol activity (combination MIC); assay type: cell-based, Pseudomonas aeruginosa; conditions: chloramphenicol 2 μg/mL; concentration of compound required to restore antibiotic activity
Experimental: This method requires the use of a 96-well plate: 100 μL of a liquid culture medium are placed in each well and then seeded with the microbial suspension prepared previously. The required volume to be seeded is calculated for an OD of 0.01, which corresponds to about 5×10^6 bacteria in each well. In this plate, the first line corresponds to a negative control (200 μL of sterile culture medium in each well), the second line corresponds to a positive control (100 μL of sterile culture medium+100 μL of the bacterial suspension), and the third line contains 192 μL of culture medium; 8 μL of compound of formula (I) to be tested are placed in each well. Thereafter, a cascade dilution is performed from this line. […] 92 μL of bacterial suspension are then added to lines 3 to 8. The results are read (the determination of the MIC (2 μg/mL of doxycycline) in the presence of X g/mL of compound of formula (I)) after 24 hours of incubation at 37° C. under a humid atmosphere. After 24 hours of incubation at 37° C., 40 μL of nitro tetrazolium iodide are added to each well to reveal the presence of live bacteria by staining the medium pink.
The procedure is identical to that indicated in Example 5 above. […]
(§2) The results are given in table V. They indicate the concentration of compound of formula (I) required to be able to restore the activity of the antibiotic under consideration.

[4] = tested on: S. intermedius Animal (1051997); experiment: MIC determination, S. intermedius animal (1051997); assay type: cell-based; conditions: Staphylococcus intermedius; Gram-positive; Mueller-Hinton medium, 24 h at 37° C.
Summary of the method: as §1

E. coli Animal (1956) = experiment: MIC determination, E. coli animal (1956); assay type: cell-based; conditions: Escherichia coli; Gram-negative; Mueller-Hinton medium, 24 h at 37° C.
Summary of the method: as §1

P. aeruginosa (1051575) [5] = experiment: Potentiation of erythromycin activity (combination MIC); assay type: cell-based, Pseudomonas aeruginosa; conditions: erythromycin 2 μg/mL; concentration of compound required to restore antibiotic activity
Experimental: This method requires the use of a 96-well plate: 100 μL of a liquid culture medium are placed in each well and then seeded with the microbial suspension prepared previously. The required volume to be seeded is calculated for an OD of 0.01, which corresponds to about 5×10^6 bacteria in each well. In this plate, the first line corresponds to a negative control (200 μL of sterile culture medium in each well), the second line corresponds to a positive control (100 μL of sterile culture medium+100 μL of the bacterial suspension), and the third line contains 192 μL of culture medium; 8 μL of compound of formula (I) to be tested are placed in each well. Thereafter, a cascade dilution is performed from this line. L of a doxycycline solution (1 mg dissolved in 20 mL) are then added to each well of lines 3 to 8 to obtain a final antibiotic concentration of 2 μg/mL. 92 μL of bacterial suspension are then added to lines 3 to 8. The results are read (the determination of the MIC (2 μg/mL of doxycycline) in the presence of X g/mL of compound of formula (I)) after 24 hours of incubation at 37° C. under a humid atmosphere. After 24 hours of incubation at 37° C., 40 μL of nitro tetrazolium iodide are added to each well to reveal the presence of live bacteria by staining the medium pink.
The procedure is identical to that indicated in Example 5 above. 8 μL of an antibiotic solution under consideration (1 mg dissolved in 20 mL) are added to obtain a final antibiotic concentration of 2 μg/mL instead of 8 μL of a doxycycline solution.
as §2

P. aeruginosa (1051575) [6] = experiment: Potentiation of doxycycline activity (combination MIC); assay type: cell-based, Pseudomonas aeruginosa; conditions: in presence of doxycycline 2 μg/mL; 24 hours at 37° C.
[7] = tested on: E. faecalis Human ATCC 29212; experiment: MIC determination, E. faecalis human ATCC 29212; assay type: cell-based; conditions: Enterococcus faecalis, ATCC29212; Gram-positive; Mueller-Hinton medium, 24 h at 37° C.
Summary of the method: as §1

E. coli Human ATCC 28922 = experiment: MIC determination, E. coli human ATCC 28922; assay type: cell-based; conditions: Escherichia coli, ATCC28922; Gram-negative; Mueller-Hinton medium, 24 h at 37° C.
Summary of the method: as §1

[8] = tested on: S. aureus Human ATCC 25923; experiment: MIC determination, S. aureus human ATCC 25923; assay type: cell-based; conditions: Staphylococcus aureus, ATCC25923; Gram-positive; Mueller-Hinton medium, 24 h at 37° C.
Summary of the method: as §1

C. albicans = experiment: Antifungal activity, cascade microdilution; assay type: cell-based; conditions: Candida albicans, 24 h, read-out: IC50 (μg/mL) C. albicans

| Compound | MIC (S. aureus Animal (340)) [µg/mL] | MIC [1] [µg/mL] | MIC [2] [µg/mL] | IC50 (CHO-K1 cells) [µg/mL] | MIC P. aeruginosa (1051575) compound + chloramphenicol (P. aeruginosa (1051575) [3]) [µg/mL] | MIC [4] [µg/mL] | MIC (E. coli Animal (1956)) [µg/mL] | MIC P. aeruginosa (1051575) compound + erythromycin (P. aeruginosa (1051575) [5]) [µg/mL] | MIC - P. aeruginosa (1051575): content of compound of formula (I) to restore the doxycycline activity (at 2 μg/mL) (P. aeruginosa (1051575) [6]) [µg/mL] | MIC [7] [µg/mL] | MIC (E. coli Human ATCC 28922) [µg/mL] | MIC [8] [µg/mL] | IC50 (C. albicans) [µg/mL] |
| --- | --- | --- | --- | --- | --- | --- | --- | --- | --- | --- | --- | --- | --- |
| CC(C)N(C(=O)CC[C@@H](C)[C@H]1CCC2C3C(CC[C@@]21C)[C@@]1(C)CC[C@H](NCCCNCCCN)CC1C[C@H]3O)C(C)C (stereo partly drawn) [(37), 3β-norspermidino-N-diisopropylchenodeoxycholamide] | 2 (≈ 3.4 µM) | 15 (≈ 25.5 µM) | 30 (≈ 50.9 µM) | 35 (≈ 59.4 µM) | 2 | 1 (≈ 1.7 µM) | 4 (≈ 6.79 µM) | 7 | 2 | 4 (≈ 6.79 µM) | 15 (≈ 25.5 µM) | 4 (≈ 6.79 µM) | – |
| CC(C)N(C(=O)CC[C@@H](C)[C@H]1CCC2C3C(CC[C@@]21C)[C@@]1(C)CC[C@H](NCCCN(CCCN)CCCN)CC1C[C@H]3O)C(C)C (stereo partly drawn) [(56), 3β-(tris(3-aminopropyl)amine)-N,N-diisopropylchenodeoxycholamide] | 4 (≈ 6.19 µM) | 65 (≈ 101 µM) | 130 (≈ 201 µM) | – | – | 4 (≈ 6.19 µM) | 16 (≈ 24.8 µM) | – | 2 | 2 (≈ 3.1 µM) | 65 (≈ 101 µM) | 4 (≈ 6.19 µM) | 4 (≈ 6.19 µM) |
| CC(C)NC(=O)CC[C@@H](C)[C@H]1CCC2C3C(CC[C@@]21C)[C@@]1(C)CC[C@H](NCCN(CCN)CCN)CC1C[C@H]3O (stereo partly drawn) [(45), 3β-(tris(2-aminoethyl)amine)-N-isopropylchenodeoxycholamide] | 4 (≈ 7.12 µM) | 28 (≈ 49.8 µM) | 110 (≈ 196 µM) | 60 (≈ 107 µM) | 7 | 2 (≈ 3.56 µM) | 14 (≈ 24.9 µM) | 28 | 7 | 14 (≈ 24.9 µM) | 110 (≈ 196 µM) | 7 (≈ 12.5 µM) | – |
| CC(C)N(C(=O)CC[C@@H](C)[C@H]1CCC2C3C(CC[C@@]21C)[C@@]1(C)CC[C@H](NCCCNCCCCNCCCN)CC1C[C@H]3O)C(C)C (stereo partly drawn) [(50), 3β-spermino-N,N-diisopropylchenodeoxycholamide] | 2 (≈ 3.03 µM) | 17 (≈ 25.8 µM) | 17 (≈ 25.8 µM) | 25 (≈ 37.9 µM) | 2 | 2 (≈ 3.03 µM) | 17 (≈ 25.8 µM) | 4 | 2 | 4 (≈ 6.06 µM) | > 130 | 4 (≈ 6.06 µM) | – |
| CC(C)NC(=O)CC[C@@H](C)[C@H]1CCC2C3C(C[C@H](O)[C@@]21C)[C@@]1(C)CC[C@H](NCCCN(CCCN)CCCN)CC1C[C@H]3O (stereo partly drawn) [(43), 3β-(tris(3-aminopropyl)amine)-N-isopropylcholamide] | 16 (≈ 25.8 µM) | 60 (≈ 96.8 µM) | 125 (≈ 202 µM) | 38 (≈ 61.3 µM) | 4 | 8 (≈ 12.9 µM) | 60 (≈ 96.8 µM) | 30 | 1 | 60 (≈ 96.8 µM) | 125 (≈ 202 µM) | 16 (≈ 25.8 µM) | – |
| CC(C)NC(=O)CC[C@@H](C)[C@H]1CCC2C3CCC4C[C@@H](NCCCN(CCCN)CCCN)CC[C@]4(C)C3C[C@H](O)[C@@]21C (stereo partly drawn) [(42), 3β-(tris(3-aminopropyl)amine)-N-isopropyldeoxycholamide] | 4 (≈ 6.62 µM) | 60 (≈ 99.3 µM) | 30 (≈ 49.7 µM) | 40 (≈ 66.2 µM) | 2 | 1 (≈ 1.66 µM) | 30 (≈ 49.7 µM) | 8 | 1 | 30 (≈ 49.7 µM) | > 120 | 4 (≈ 6.62 µM) | – |
| CC(C)NC(=O)CC[C@@H](C)[C@H]1CCC2C3CCC4C[C@@H](NCCCN(CCCN)CCCN)CC[C@]4(C)C3CC[C@@]21C (stereo partly drawn) [(49), 3β-(tris(3-aminopropyl)amine)-N-isopropyllithocholamide] | 4 (≈ 6.8 µM) | 60 (≈ 102 µM) | 120 (≈ 204 µM) | 6 (≈ 10.2 µM) | 4 | 2 (≈ 3.4 µM) | 30 (≈ 51 µM) | 30 | 4 | 15 (≈ 25.5 µM) | 120 (≈ 204 µM) | 4 (≈ 6.8 µM) | – |
| C[C@H](CCC(=O)NC1CCCCC1)[C@H]1CCC2C3C(CC[C@@]21C)[C@@]1(C)CC[C@H](NCCCN(CCCN)CCCN)CC1C[C@H]3O (stereo partly drawn) [(47), 3β-(tris(3-aminopropyl)amine)-N-cyclohexylchenodeoxycholamide] | 8 (≈ 12.4 µM) | 32 (≈ 49.7 µM) | 130 (≈ 202 µM) | – | – | 8 (≈ 12.4 µM) | 32 (≈ 49.7 µM) | – | 2 | 8 (≈ 12.4 µM) | 130 (≈ 202 µM) | 4 (≈ 6.21 µM) | 2 (≈ 3.11 µM) |
| C[C@H](CCC(=O)NC1CCCCC1)[C@H]1CCC2C3C(CC[C@@]21C)[C@@]1(C)CC[C@H](NCCCNCCCCNCCCN)CC1C[C@H]3O (stereo partly drawn) [(51), 3β-spermino-N-cyclohexylchenodeoxycholamide] | 2 (≈ 3.04 µM) | 16 (≈ 24.3 µM) | 16 (≈ 24.3 µM) | 13 (≈ 19.8 µM) | 2 | 1 (≈ 1.52 µM) | 16 (≈ 24.3 µM) | 8 | 2 | 2 (≈ 3.04 µM) | 105 (≈ 160 µM) | 4 (≈ 6.08 µM) | – |
| CC(C)N(C(=O)CC[C@@H](C)[C@H]1CCC2C3C(CC[C@@]21C)[C@@]1(C)CC[C@H](NCCCNCCCNCCCN)CC1C[C@H]3O)C(C)C (stereo partly drawn) [(40), 3β-norspermino-N,N-diisopropylchenodeoxycholamide] | 2 (≈ 3.1 µM) | 8 (≈ 12.4 µM) | 8 (≈ 12.4 µM) | – | – | 2 (≈ 3.1 µM) | 8 (≈ 12.4 µM) | – | 2 | 2 (≈ 3.1 µM) | 32 (≈ 49.5 µM) | 4 (≈ 6.19 µM) | 1 (≈ 1.55 µM) |
